Experimental data as given in publication PMC7144022, “Quinolinecarboxamides Inhibit the Replication of the Bovine Viral Diarrhea Virus by Targeting a Hot Spot for the Inhibition of Pestivirus Replication in the RNA-Dependent RNA Polymerase” (Molecules, 2020).

What was measured:
[1] = Cytotoxicity assay, proliferation of exponentially growing MDBK cells (MTS/PMS); format: cell-based, bovine; details: bovine
Protocol: Assays were carried out, as described previously.

BVDV NADL virus = assay: CPE-based antiviral assay, BVDV NADL in MDBK cells (MTS/PMS); details: for EC50: Bovine viral diarrhea virus isolates and strains, MDBK, 72 h; for S.I.: selectivity index, CC50 vs EC50
[2] = sheet CSFCI#, potency relative to TO505-6180 (EC50 0.07 µM)
[3] = sheet CSFCII#, potency relative to TO502-2403 (EC50 0.2 µM)

SMILES | CC50 at 5 days [1] [µM] | EC50 (BVDV NADL virus) [µM] | S.I. (BVDV NADL virus) | fold increase (BVDV NADL virus; [2]) | fold increase (BVDV NADL virus; [3])
Cc1cc2nc(NC(=O)c3cc(-c4ccco4)nc4ccccc34)sc2cc1C [CSFC-39, Cc1cc2nc(NC(=O)c3cc(nc4ccccc43)c3ccco3)sc2cc1C] | > 100 | 0.6 | 167 | 0.12 | –
O=C(Nc1ccn(-c2ccccc2)n1)c1cc(-c2ccccc2F)nc2ccccc12 [CSFC-76, Fc1ccccc1c3nc2ccccc2c(c3)C(=O)Nc4ccn(n4)c5ccccc5] | > 100 | 0.1 | 1000 | – | 2.00
Cc1cccc2sc(NC(=O)c3cc(-c4ccc(Cl)s4)nc4ccccc34)nc12 [CSFC-48, Clc1ccc(s1)c3nc2ccccc2c(c3)C(=O)Nc4nc5c(C)cccc5s4] | 14 ± 0.7 | 14 | 1 | – | 0.0143
O=C(Nc1nccs1)c1cc(-c2ccccc2)nc2ccccc12 [CSFC-16, O=C(c1cc(nc2ccccc12)c3ccccc3)Nc4nccs4] | > 100 | 30 | 3 | – | 0.00667
Cc1ccc2sc(NC(=O)c3cc(-c4ccccc4)nc4ccccc34)nc2c1C [CSFC-145, Cc1c(C)ccc2sc(nc12)NC(=O)c1cc(nc2ccccc21)c1ccccc1] | > 100 | < 0.02 | – | – | –
COc1ccc(-n2ccc(NC(=O)c3cc(-c4ccc(F)cc4)nc4ccccc34)n2)cc1 [CSFC-91, Fc1ccc(cc1)c3nc2ccccc2c(c3)C(=O)Nc4ccn(n4)c5ccc(OC)cc5] | > 100 | 1 | 100 | – | 0.20
COc1ccc2nc(NC(=O)c3cc(-c4ccco4)nc4ccc(C)cc34)sc2c1 [CSFC-73, O=C(c2cc(nc1ccc(cc12)C)c3ccco3)Nc4nc5ccc(cc5s4)OC] | > 100 | 11.5 | 9 | – | 0.0174
COc1cccc2sc(NC(=O)c3cc(-c4ccccc4)nc4ccccc34)nc12 [CSFC-19, COc1cccc2sc(nc12)NC(=O)c1cc(nc2ccccc21)c1ccccc1] | > 100 | 0.4 | 250 | 0.18 | –
Cc1ccc2nc(NC(=O)c3ncc[nH]3)sc2c1 [CSFC-30, Cc1ccc2nc(NC(=O)c3ncc[NH]3)sc2c1] | > 100 | > 100 | 1 | 0.0007 | –
Cc1cc(NC(=O)c2cc(-c3ccccc3)nc3ccccc23)on1 [CSFC-41, O=C(Nc1cc(C)no1)c3cc(nc2ccccc23)c4ccccc4] | > 100 | 34.6 | 3 | – | 0.00578
Cc1ccc2nc(NC(=O)c3cc(-c4ccccc4F)nc4ccccc34)sc2c1 [CSFC-61, Fc1ccccc1c3nc2ccccc2c(c3)C(=O)Nc4nc5ccc(C)cc5s4] | > 100 | 0.2 | 500 | – | 1.00
O=C(Nc1ccn(-c2ccccc2Cl)n1)c1cc(-c2ccccc2)nc2ccccc12 [CSFC-131, Clc1ccccc1n2ccc(n2)NC(=O)c4cc(nc3ccccc34)c5ccccc5] | > 100 | 0.1 | 1000 | – | 2.00
Cc1cccc2sc(NC(=O)c3cc(-c4cccs4)nc4ccc(Br)cc34)nc12 [CSFC-95, Brc1cc2c(cc1)nc(cc2C(=O)Nc3nc4c(C)cccc4s3)c5cccs5] | > 100 | 3.1 | 32 | – | 0.0645
Cc1cccc2sc(NC(=O)c3cc(-c4ccco4)nc4c(F)cccc34)nc12 [CSFC-80, Fc5cccc1c5nc(cc1C(=O)Nc2nc3c(C)cccc3s2)c4ccco4] | > 100 | 0.9 | 111 | – | 0.22
Cc1ccc(-n2ccc(NC(=O)c3cc(-c4ccccc4)nc4ccccc34)n2)cc1 [CSFC-141, Cc1ccc(cc1)n2ccc(n2)NC(=O)c4cc(nc3ccccc34)c5ccccc5] | > 100 | 0.6 | 167 | – | 0.33
Cc1ccc2nc(NC(=O)c3cccc4ccccc34)sc2c1 [CSFC-24, Cc1ccc2nc(NC(=O)c3cccc4ccccc43)sc2c1] | > 100 | > 100 | 1 | 0.0007 | –
COc1ccc2nc(NC(=O)c3cc(-c4ccco4)nc4c(F)cccc34)sc2c1 [CSFC-83, Fc5cccc1c5nc(cc1C(=O)Nc2nc3ccc(cc3s2)OC)c4ccco4] | > 100 | 0.07 | 1429 | – | 2.86
O=C(Nc1ccncc1)c1cc(-c2ccccc2)nc2ccccc12 [CSFC-8, O=C(Nc1ccncc1)c1cc(nc2ccccc21)c1ccccc1] | > 100 | > 100 | 1 | 0.0007 | –
CCOc1ccc2nc(NC(=O)c3cc(-c4ccccc4)nc4ccccc34)sc2c1 [CSFC-58, CCOc1ccc2nc(sc2c1)NC(=O)c4cc(nc3ccccc34)c5ccccc5] | > 100 | 3.3 | 30 | – | 0.06
Cc1ccc2nc(N(C)C(=O)c3cc(-c4ccccc4)nc4ccccc34)sc2c1 [CSFC-21, O=C(c1cc(nc2ccccc21)c1ccccc1)N(C)c1nc2ccc(C)cc2s1] | > 100 | > 100 | 1 | 0.0007 | –
Cc1ccccc1-n1ccc(NC(=O)c2cc(-c3ccccc3)nc3ccccc23)n1 [CSFC-142, Cc1ccccc1n2ccc(n2)NC(=O)c4cc(nc3ccccc34)c5ccccc5] | 23 | 2.3 | 10 | – | 0.09
Cc1cccc2sc(NC(=O)c3cc(-c4cnccn4)nc4ccccc34)nc12 [CSFC-116, Cc1cccc2sc(nc12)NC(=O)c4cc(nc3ccccc34)c5cnccn5] | > 100 | 0.3 | 333 | – | 0.67
Cc1cccc2sc(NC(=O)c3cc(-c4ccc(F)cc4)nc4ccccc34)nc12 [CSFC-66, Fc1ccc(cc1)c3nc2ccccc2c(c3)C(=O)Nc4nc5c(C)cccc5s4] | > 100 | 0.2 | 500 | – | 1.00
COc1cccc(NC(=O)c2cc(-c3ccccc3)nc3ccccc23)c1 [CSFC-138, COc1cccc(c1)NC(=O)c1cc(nc2ccccc12)c1ccccc1] | > 100 | > 100 | 1 | 0.0007 | –
Cc1cccc2sc(NC(=O)c3cc(-c4ccccc4Cl)nc4ccccc34)nc12 [CSFC-113, Clc1ccccc1c3nc2ccccc2c(c3)C(=O)Nc4nc5c(C)cccc5s4] | > 100 | 0.4 | 250 | – | 0.50
Cc1ccc2nc(-c3ccco3)cc(C(=O)Nc3nc4c(C)cccc4s3)c2c1 [CSFC-72, Cc1cc2c(cc1)nc(cc2C(=O)Nc3nc4c(C)cccc4s3)c5ccco5] | > 100 | 8.7 | 11 | – | 0.023
O=C(Nc1ccn(-c2ccccc2)n1)c1cc(-c2cccs2)nc2c(Cl)cccc12 [CSFC-109, O=C(Nc1ccn(n1)c2ccccc2)c4cc(nc3c(Cl)cccc34)c5cccs5] | 13 | 0.2 | 65 | – | 1.00
